“And” between values parts separate entries of the source, which are not always exact repeats. Identical values can stand only once. Like-named read-outs stand apart in the source and are kept apart here.
Legend:
[1] = system: TNF production by LPS-stimulated nicotinic acetylcholine receptor α7 subunit knockout peritoneal macrophages; assay type: cell-based, mouse
[2] = system: TNF production by LPS-stimulated wild type peritoneal macrophages; assay: TNF production by wild type peritoneal macrophages; assay type: cell-based, mouse; conditions: 4 h, ELISA, mean ± s.e.m., n = 8
[3] = system: LPS induced TNF-α release from murine RAW 264.7 macrophage-like cells; assay: cells; assay type: cell-based
[4] = system: macrophages; conditions: data not shown
[5] = molecular target: α-bungarotoxin-binding nicotinic receptors on primary human macrophages (Homo sapiens, UniProt P36544)
Chain of α-bungarotoxin-binding nicotinic receptors on primary human macrophages (P36544 23-502): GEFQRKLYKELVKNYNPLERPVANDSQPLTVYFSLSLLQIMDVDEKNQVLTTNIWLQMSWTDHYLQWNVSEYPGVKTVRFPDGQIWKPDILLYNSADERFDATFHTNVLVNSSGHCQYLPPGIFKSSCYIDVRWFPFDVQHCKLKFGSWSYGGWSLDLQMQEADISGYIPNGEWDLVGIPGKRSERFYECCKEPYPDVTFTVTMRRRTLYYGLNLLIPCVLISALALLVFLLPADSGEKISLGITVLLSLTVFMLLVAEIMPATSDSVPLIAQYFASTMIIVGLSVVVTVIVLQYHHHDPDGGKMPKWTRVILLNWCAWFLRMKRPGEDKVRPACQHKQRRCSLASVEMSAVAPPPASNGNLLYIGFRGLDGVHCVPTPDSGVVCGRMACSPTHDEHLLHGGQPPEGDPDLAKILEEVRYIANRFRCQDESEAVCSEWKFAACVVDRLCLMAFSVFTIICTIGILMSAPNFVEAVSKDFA

[6] = system: Balb/c mice; conditions: mouse, in vivo
[7] = system: C57 B/6 mice; conditions: mouse, in vivo
[8] = system: C57 B/6 mice; conditions: mouse, in vivo; remark: listed apart in the source
[9] = agonist 1 μM added 5-10 min before LPS (100 ng/ml)
[10] = agonist 10 μM added 5-10 min before LPS (100 ng/ml)

Molecule: CN1CCCC1c1cccnc1 (stereo not shown) [nicotine]
- TNF [1]: 17.8 ± 0.6 ng/mL and 17.4 ± 2.9 ng/mL
- TNF production by α7 knockout macrophages in the presence of the agonist [1]: produced TNF normally
- TNF [2, 9]: 5.2 ± 0.9 ng/mL
- TNF [2, 10]: 7.3 ± 1.0 ng/mL
- inhibition of TNF-α release ([3]; 0.001-100 uM added five minutes before LPS (500 ng/ml), 4 hours, ELISA, FIG. 7): dose dependently inhibits
- inhibition of LPS-induced TNF release in RAW264.7 ([3]; data not shown): significantly inhibit
- calcium influx [4]: induces transient calcium influx
- effect of pretreatment on intensity of α-bungarotoxin binding [5]: markedly reduced

Molecule: O=C1NCC2(CN3CCC2CC3)O1 (single isomer, unassigned; (-)) [Compound (VII), (−)-spiro[1-azabicyclo[2.2.2]octane-3,5′-oxazolidin-2′-one]]
- TNF-α release from RAW 264.7 cells at the higher concentrations [3]: inhibit TNF-α release
- decrease of TNF-α release compared to control cells [3]: more than four times

Molecule: COc1ccc(/C=C2\CCCN=C2c2cccnc2)c(OC)c1 [Compound (V), 3-2,4-dimethoxybenzylidene anabaseine]
- mice survived on Day 14 [6]: 91%
- inhibition of TNF-α release [3]: dose dependently inhibits

Molecule: COc1cc(O)ccc1/C=C1\CCCN=C1c1cccnc1 [Compound (VI), 3-(4-hydroxy-2-methoxybenzylidene)anabaseine]
- colon length compared to control mice [7]: slightly greater
- colon weight (wet weight) compared to control condition [7]: decreased
- mice survived on Day 14 [6]: 82%
- percent inhibition of TNF-α [3]: dose dependently inhibits
- IC50 ([3]; Mus musculus, RAW264.7, read-out: estimated IC50, inhibition of TNF-α): ~900 nM
- decrease of the level of circulating TNF-α compared to vehicle control [8]: approximately 50%

Molecule: CC(=O)OCC[N+](C)(C)C [Ach, acetylcholine]
- TNF [1]: 20.4 ± 3.8 ng/mL and 21.4 ± 2.4 ng/mL
- TNF [2, 9]: 10.3 ± 1.1 ng/mL
- TNF [2, 10]: 5.7 ± 0.9 ng/mL

Molecule: α-bungarotoxin
- binding of α-bungarotoxin on the macrophage surface [5]: Strong binding

Reference: patent US9592228B2, “Treatment of inflammation using alpha 7 receptor-binding agonists” (THE FEINSTEIN INSTITUTE FOR MEDICAL RESEARCH, priority 2002, dated 2017)
